According to US20210032806A1, “ANTIMICROBIAL FABRIC TREATMENT” (The Procter & Gamble Company, priority 2019, published 2021):
Converted amounts (≈) assume the structure as drawn.

What was measured:
Format in all cases: cell-based
[1] = test system: Staphylococcus aureus (S. aureus—ATCC #6538); assay: Minimum Biocidal Concentration (MBC) in suspension, S. aureus; conditions: 6 minutes contact time, 5% horse serum soil load
Protocol: (§1) The antimicrobial efficacy of the antimicrobial agent in the aqueous liquor is determined by measuring its Minimum Biocidal Concentration (MBC). The MBC is defined as the lowest absolute concentration of the particular antimicrobial active which provides complete kill (zero bacterial growth). The MBC of the bispyridinium alkane antimicrobial active is determined against the bacterium, Staphylococcus aureus (S. aureus—ATCC #6538), a gram positive bacterium, and against Escherichia coli (E. coli ATCC #8739) these microorganisms are representative of natural contaminants in many consumer and industrial applications. The bacteria inoculum is prepared by transferring several colonies from a Tryptone Soy Agar (TSA) plate to a saline solution (0.85% NaCl) comprising 5% of horse serum as additional soil load, the bacteria concentration in this saline solution is determined by measuring the % Transmittance at 425 nm and adjusted by either adding more bacteria or more saline solution until the % Transmittance at 425 nm is between 23-25% for S. aureus and 31-33% for E. coli. These % Transmittance values correspond to a bacteria concentration of 10^8 CFU/ml.
(§2) The antimicrobial agent was added to the aqueous liquor to be used in the method of the present invention at a level of 200 ppm, or 100 ppm or 50 ppm. 200 μL of the antimicrobial aqueous liquor was dosed into one well of row A of a 96 well microtiter plate. Each subsequent well (rows B to G) were dosed with 100 μL of the same aqueous liquor, without the addition of the antimicrobial agent. 100 μL of the antimicrobial aqueous liquor was transferred from row A to row B and mixed. 100 μL of the antimicrobial aqueous liquor was then transferred from row B to row C and mixed, and the process repeated to row G. As such, the concentration of the antimicrobial agent underwent two-fold dilution in adjacent wells, while the concentration of any adjunct present in the aqueous liquor remained constant across all the wells in the same column.
10 μL of the 10^8 CFU/ml bacteria suspension in saline was added to wells A to F of the microtiter plate with row G kept as a nil bacteria control. The final volume in each well was 110 μL, except for row G which comprised 100 μL of the hard surface cleaning composition and no bacteria suspension. Bacterial inoculation to each column was staggered by 30 seconds to allow for equal incubation times in all wells so that the contact time between the bacteria and the antimicrobial active for all samples was 6 mins. After this contact time, 10 μL of each test solution was transferred to 90 μL of neutraliser solution (Modified Letheen Broth+1.5% Polysorbate 80, supplied by BioMérieux) to stop the antimicrobial action of the antimicrobial active matching the stagger of the inoculation. 2 μL of this solution was plated onto a TSA plate matching the stagger of the inoculation so that all samples are exposed to the neutralizer for the same period of time. The plate is incubated at 32.5° C. for 24-48 h for S. aureus, and 24 h for E. coli. MBC concentration is taken as the lowest concentration of the antimicrobial active at which no visible colony growth is observed on the TSA plate.
(§3) The antibacterial efficacy of the bispyridinium alkane octenidine hydrochloride was compared to that of N-(3-aminopropyl)-N-dodecylpropane-1,3-diamine (Lonzabac 12.30-Lonza) and n-alkyl dimethyl benzyl ammonium chloride/n-alkyl dimethyl ethylbenzyl ammonium chloride (BTC2125-Stepan) in different aqueous liquors. The minimal biocidal concentration (MBC) in suspension of each antibacterial active against a gram positive bacterium (Staphylococcus aureus) and a gram negative bacterium (Escherichia coli) was determined after 6 minutes contact time.

[2] = test system: Escherichia coli (E. coli ATCC #8739); assay: Minimum Biocidal Concentration (MBC) in suspension, E. coli; conditions: 6 minutes contact time, 5% horse serum soil load; for MBC: Escherichia coli, ATCC8739, 0.1 h
Protocol: as §1, §2
10 μL of the 10^8 CFU/ml bacteria suspension in saline was added to wells A to F of the microtiter plate with row G kept as a nil bacteria control. […]
as §3

[3] = test system: Staphylococcus aureus (S. aureus—ATCC #6538); assay: Antibacterial efficacy on cotton fabrics; conditions: cotton fabric, 625 ppm active in liquor with 3750 ppm C12-C14 EO7, 1 h contact; for Number of bacteria recovered from treated fabrics: nil AB reference 9.1 × 10^5 CFU/ml
Protocol: The bactericidal efficacy on fabric surfaces of treatments with antimicrobial aqueous liquors comprising different antimicrobial agents was determined against the bacterium Staphylococcus aureus (S. aureus—ATCC #6538). The bacteria inoculum was prepared by transferring several colonies from a Tryptone Soy Agar (TSA) plate to a saline solution (0.85% NaCl) comprising 5% horse serum as additional soil load, the bacteria concentration in this saline solution was determined by measuring the % Transmittance at 425 nm and adjusted by either adding more bacteria or more saline solution until the % Transmittance at 425 nm is between 23-25% which corresponds to a bacteria concentration of 10^8 CFU/ml.
Fabric carriers, 1 cm×1 cm disks of cotton sterilized by autoclaving, were inoculated with 30 μL of the 10^8 CFU/ml bacteria inoculum and incubated for 20 mins at 32° C. After this incubation period, 3 fabric carriers were placed within bundles of 10 clean sterile cotton disks and secured by placing a sterile 30 mm paperclip to the edge of the bundle. The fabric bundles were placed in 30 ml of antimicrobial aqueous liquors to be used in the method of the present invention comprising 3750 ppm of C12-C14 EO7 alkyl ethoxylate non ionic surfactant and 625 ppm of either bispyridinium alkane (octenidine dihydrochloride), N-(3-aminopropyl)-N-dodecylpropane-1,3-diamine (Lonzabac 12.30) or benzalkonium chloride (Sigma-Aldrich CAS number 63449-41-2) as antimicrobial actives. The contact time between the bacteria in the fabric carriers and the antimicrobial aqueous liquor was 1 h. After this contact time, each fabric bundle was rinsed for 5 minutes with water and the 3 fabric carries transferred to 9 ml of neutralizer solution (Modified Letheen Broth+1.5% Polysorbate 80, supplied by BioMérieux) to stop the antimicrobial action of the antimicrobial active. The neutralizer tube containing the fabric carriers was vortexed in a Genie 2 vortexer set at speed 7 for 30 seconds. Ten-fold dilutions of the neutralizer+fabric carrier solution were prepared by transferring 1 ml of the neutralizer solution to 9 ml of neutralizer solution, this solution was further diluted in neutralizer solution following the same protocol so that serial ten-fold dilutions were obtained. 100 μL of each of the serial dilutions were plated on a TSA plate, plates were incubated at 32° C. for 18 hours, after this incubation time, the number of colonies in each plate was counted. The target dilution used to determine the bactericidal efficacy of aqueous liquor of the method of the present invention was the one delivering 30-300 CFU in the plate, the data reported for each antimicrobial active is the average of the bacteria number in three plates multiplied by the target dilution. The log reduction for each antibacterial treatment vs nil antibacterial active reference is the log 10 of the number obtained by dividing the number of colonies recovered from the fabrics treated with the nil antibacterial reference aqueous liquor by the number of colonies recovered from the fabrics treated with aqueous liquors comprising the different antimicrobial actives.
Cotton fabrics inoculated with bacteria were treated for 1 hour with aqueous liquors comprising 3750 ppm of C12-C14 EO7 alkyl ethoxylate non ionic surfactant and either no antibacterial active (ref) or 625 ppm of octenidine hydrochloride, 625 ppm of Lonzabac 12.30 or 625 ppm of benzalkonium chloride as antibacterial actives. After the treatment, the bacteria remaining on the treated fabrics were extracted and quantified. It can be seen that the treatment done with the aqueous liquor comprising octenidine hydrochloride provides better antibacterial efficacy, i.e. less bacteria remaining on fabrics, and higher log reduction, than the treatments done with aqueous liquors comprising either Lonzabac or benzalkonium chloride.

[4] = aqueous liquor 2: Octyliminodipropionate (Ampholak YJH 40) 0.1%
[5] = aqueous liquor 3: C12-C14 EO7 alcohol ethoxylate 0.1%
[6] = aqueous liquor 5: Sodium lauroamphohydroxypropylsulfonate (Miranol JS) 0.0062%
[7] = aqueous liquor 7: Octyliminodipropionate (Ampholak YJH 40) 0.0062%
[8] = aqueous liquor 8: C12-C14 EO7 alcohol ethoxylate 0.0062%

Row | Molecule | MBC ([1]; Staphylococcus aureus, ATCC6538, 0.1 h, aqueous liquor 1: deionized water) [µg/mL] | MBC S. aureus [1, 4] [ppm] | MBC S. aureus [1, 5] [ppm] | MBC S. aureus ([1]; aqueous liquor 4: Disodium capryloamphodiacetate (Mackam 2CY75) 0.025%) [ppm] | MBC S. aureus [1, 6] [ppm] | MBC [2, 7] [µg/mL] | MBC [2, 8] [µg/mL] | Log reduction vs treatment with nil AB active reference [3] | Number of bacteria recovered from treated fabrics [3] | MBC S. aureus ([1]; aqueous liquor 1: deionized water) [ppm] | MBC E. coli [2, 7] [ppm] | MBC E. coli [2, 8] [ppm]
1 | CCCCCCCCCCCCN(CCCN)CCCN [Lonzabac 12.30, N-(3-aminopropyl)-N-dodecylpropane-1,3-diamine] | 25 (≈ 83.5 µM) | 25 | 25 | 25 | 25 | 50 (≈ 167 µM) | 25 (≈ 83.5 µM) | Log 0.7 | 1.9 × 10^5 CFU/ml | – | – | –
2 | CCCCCCCCN=c1ccn(CCCCCCCCCCn2ccc(=NCCCCCCCC)cc2)cc1.Cl.Cl [Octenidine, octenidine dihydrochloride] | – | 3.125 | 6.25 | – | 3.125 | – | – | Log 2.5 | 2.8 × 10^3 CFU/ml | 3.125 | 3.125 | 6.25
3 | benzalkonium chloride | – | – | – | – | – | – | – | Log 1.2 | 5.8 × 10^4 CFU/ml | – | – | –
